Results: EP0538016A1, “MRSA active 2-phenyl-carbapenems” (MERCK & CO. INC., priority 1991, dated 1993)

System: MRSA
Experiment: Activity against a strain of MRSA pathogen, relative to thienamycin
Assay type: cell-based, methicillin resistant Staphylococcus aureus
Conditions: relative to the effectiveness of thienamycin, arbitrarily assigned an effectiveness of 1
Experimental: The activity of the following compounds was measured against a strain of MRSA pathogen and reported as relative to the effectiveness of thienamycin, which is arbitrarily assigned an effectiveness of 1. Regarding this measure of activity, reference is made to R. Guthikonda, et al., J. Med. Chem., 30, 871 (1987). [drawing 76]

SMILES	ANTI-INFECTIVE ACTIVITY MRSA
C[C@@H](O)[C@H]1C(=O)N2C(C(=O)O)=C(c3cc([S+](C)[O-])cc([S+](C)[O-])c3)C[C@H]12 (stereo partly drawn) [R^a1=(S→O)Me, R^a2=H, R^a3=(S→O)Me]	1.2
C[C@@H](O)[C@H]1C(=O)N2C(C(=O)O)=C(c3cc([S+](C)[O-])cc(S(C)(=O)=O)c3)C[C@H]12 (stereo partly drawn) [R^a1=(S→O)Me, R^a2=H, R^a3=[drawing]]	3.7
CC(O)C1C(=O)N2C(C(=O)O)=C(c3cc(Br)cc(CO)c3)CC12 (stereo not drawn) [R^a1=Br, R^a2=H, R^a3=CH2OH, reference compound]	8.7
CC(O)C1C(=O)N2C(C(=O)O)=C(c3cc(Br)cc(C=O)c3)CC12 [R^a1=Br, R^a2=H, R^a3=HC=O, sodium (5R,6S)-2-[(3-aldehydo)-(5-bromo)phenyl]-6-[(1R)-1-hydroxyethyl]carbapen-2-em-3-carboxylate]	219
CC(O)C1C(=O)N2C(C(=O)O)=C(c3cccc(CO)c3)CC12 (stereo not drawn) [R^a1=H, R^a2=H, R^a3=CH2OH, reference compound]	0.9
CC(O)C1C(=O)N2C(C(=O)O)=C(c3cccc(C=O)c3)CC12 (stereo not drawn) [R^a1=H, R^a2=H, R^a3=HC=O, reference compound]	3.3
CC(O)C1C(=O)N2C(C(=O)O)=C(c3ccc(C=O)cc3)CC12 (stereo not drawn) [R^a1=H, R^a2=HC=O, R^a3=H, reference compound]	2
CC(O)C1C(=O)N2C(C(=O)O)=C(c3ccc(I)cc3)CC12 (stereo not drawn) [R^a1=H, R^a2=I, R^a3=H, reference compound]	1.8
CC(O)C1C(=O)N2C(C(=O)O)=C(c3cc(I)cc([S+](C)[O-])c3)CC12 [R^a1=I, R^a2=H, R^a3=(S→O)Me, sodium (5R, 6S)-2-[(3-methylsulfinyl)-5-iodophenyl]-6-[(1R)-1-hydroxyethyl]carbapen-2-em-3-carboxylate]	63
CC(O)C1C(=O)N2C(C(=O)O)=C(c3cccc(I)c3)CC12 (stereo not drawn) [R^a1=I, R^a2=H, R^a3=H, reference compound]	21
CC(O)C1C(=O)N2C(C(=O)O)=C(c3cc(I)cc(I)c3)CC12 [R^a1=I, R^a2=H, R^a3=I, sodium (5R,6S)-2-[(3,5-diiodo)phenyl]-6-[1R-1-hydroxyethyl]-carbapen-2-em-3-carboxylate]	88
CSc1cc(I)cc(C2=C(C(=O)O)N3C(=O)C(C(C)O)C3C2)c1 [R^a1=I, R^a2=H, R^a3=SMe, sodium (5R, 6S)-2-[(3-methylthio)-5-iodophenyl]-6-[(1R)-1-hydroxyethyl]carbapen-2-em-3-carboxylate]	60
CC(O)C1C(=O)N2C(C(=O)O)=C(c3cc(I)cc(S(C)(=O)=O)c3)CC12 (stereo not drawn) [R^a1=I, R^a2=H, R^a3=[drawing]]	63
CSc1cc(C2=C(C(=O)O)N3C(=O)[C@H]([C@@H](C)O)[C@H]3C2)cc([S+](C)[O-])c1 (stereo partly drawn) [R^a1=SMe, R^a2=H, R^a3=(S→O)Me, sodium (5R,6S)-2-[(3-methylsulfinyl)-(5-methylthio)phenyl]-6-[(1R)-hydroxyethyl]carbapen-2-em-3-carboxylate]	6.1
CSc1cc(CO)cc(C2=C(C(=O)O)N3C(=O)[C@H]([C@@H](C)O)[C@H]3C2)c1 [R^a1=SMe, R^a2=H, R^a3=CH2OH]	3.2
CSc1cc(C=O)cc(C2=C(C(=O)O)N3C(=O)[C@H]([C@@H](C)O)[C@H]3C2)c1 [R^a1=SMe, R^a2=H, R^a3=HC=O]	61
CSc1cc(SC)cc(C2=C(C(=O)O)N3C(=O)C(C(C)O)C3C2)c1 (stereo not drawn) [R^a1=SMe, R^a2=H, R^a3=SMe]	28
C[C@@H](O)[C@H]1C(=O)N2C(C(=O)O)=C(c3cc(S(C)(=O)=O)cc(S(C)(=O)=O)c3)C[C@H]12 [R^a1=[drawing], R^a2=H, R^a3=[drawing]]	12
